The values below are quoted from earlier work in patent US7041008B2, “Golf ball with sulfur cured inner component” (priority 1993, dated 2006).

Turning to `CCCCOC(=O)CCC(C)(OOC(C)(C)C)OOC(C)(C)C` [n-butyl 4,4-bis(t-butyl-peroxy) valerate], the “Acute oral LD50” value is on record as 5,000 mg/kg. With `CC1CC(C)(C)CC(OOC(C)(C)C)(OOC(C)(C)C)C1` (stereo not drawn) [1,1-bis(t-butylperoxy)-3,3,5-trimethyl cyclohexane], the “Acute oral LD50” value is reported as >13,000 mg/kg. On to `O=C(OOC(=O)c1ccccc1)c1ccccc1` [benzoyl peroxide], for which the “Acute oral LD50” value is given as >5,000 mg/kg.

`CC(C)(C)OOC(=O)c1ccccc1` [t-butyl perbenzoate]: the “Acute oral LD50” value is listed as >3,600 mg/kg. Regarding `C1CN(SSN2CCOCC2)CCO1` [4,4″-dithiodimorpholine], the “Acute oral LD50” value was 5,600 mg/kg. Consider “2,2′-bis(t-butylperoxy)-di-iso-propylbenzene”, for which the “Acute oral LD50” value was >23,000 mg/kg. On to `CC(C)(OOC(C)(C)c1ccccc1)c1ccccc1` [dicumyl peroxide], for which the “Acute oral LD50” value is reported as 4,100 mg/kg. Regarding `CC(C)(C)OOC(C)(C)CCC(C)(C)OOC(C)(C)C` [2,5-dimethyl-2,5-di(t-butylperoxy) hexane], the “Acute oral LD50” value is recorded as >32,000 mg/kg. As to `O=C1CCCCCN1SSN1CCCCCC1=O` [N,N′-caprolactum disulfide], the “Acute oral LD50” value was 3,620 mg/kg.
